Test results: ChEMBL document CHEMBL4406808, “Synthesis and assessment of phenylacrylamide derivatives as potential anti-oxidant and anti-inflammatory agents” (Eur J Med Chem, 2019)

Experiments:
HBZY-1 [1] = assay: Cytotoxicity against rat HBZY-1 cells assessed as reduction in cell viability after 2 hrs by MTT assay; format: cell-based; settings: HBZY-1, 2 h
HBZY-1 [2] = assay: Cytoprotection activity against H2O2-induced cell death in rat HBZY-1 cells assessed as cell viability at 6 uM preincubated with compound for 2 hrs followed by H2O2 addition and measured after 24 hrs by MTT assay (reference value: 62.1%); format: functional; settings: read-out: Activity

SMILES | IC50 (HBZY-1 [1]) [µM] | viability at 6 µM (HBZY-1 [2]) [%]
COc1ccccc1NC(=O)/C(C#N)=C/c1ccc(OC)c(OC)c1 | > 200 | 78.4
CCCCNC(=O)/C(C#N)=C/c1ccccc1C(F)(F)F | > 200 | 65.6 to 96.4
COc1ccc(NC(=O)/C(C#N)=C/c2ccccc2C(F)(F)F)cc1 | > 200 | 82.4
COc1ccccc1NC(=O)/C=C/c1ccccc1C(F)(F)F | > 200 | 65.6 to 96.4
COc1ccccc1NC(=O)/C(C#N)=C/c1ccc(C)cc1 | > 200 | 65.6 to 96.4
COc1ccccc1NC(=O)/C(C#N)=C/c1cc(OC)c(OC)c(OC)c1 | > 200 | 78.1
COc1cc(NC(=O)/C(C#N)=C/c2ccccc2C(F)(F)F)cc(OC)c1OC | > 200 | 65.6 to 96.4
O=C(/C=C/c1ccccc1C(F)(F)F)Nc1ccc(F)c(Cl)c1 | > 200 | 65.6 to 96.4
COc1ccc(/C=C(\C#N)C(=O)Nc2ccccc2OC)cc1 | > 200 | 65.6 to 96.4
COc1ccc(NC(=O)/C=C/c2ccccc2C(F)(F)F)cc1OC | > 200 | 65.6 to 96.4
COc1ccccc1NC(=O)/C(C#N)=C/c1ccccc1C | > 200 | 65.6 to 96.4
COc1ccc(CNC(=O)/C(C#N)=C/c2ccccc2C(F)(F)F)cc1 | > 200 | 80.8
N#C/C(=C\c1ccccc1C(F)(F)F)C(=O)Nc1ccc(F)c(Cl)c1 | > 200 | 80.4
